# From ChEMBL document CHEMBL5500427, “Discovery of New Phenyltetrazolium Derivatives as Ferroptosis Inhibitors for Treating Ischemic Stroke: An Example Development from Free Radical Scavengers” (J Med Chem, 2024)
# Active and inactive are the calls of the source. The rule behind the calls is not given here.
# How the values were obtained:
# [1] = system: HT-1080; experiment: Anti-ferroptotic activity against Erastin-induced human HT-1080 cells assessed as inhibition of ferroptosis incubated for 72 hrs by CCK-8 assay; assay type: functional, cell-based
# [2] = system: Hippocampus; experiment: Anti-ferroptotic activity against glutamate-induced rat Hippocampus assessed as inhibition of ferroptosis; assay type: functional, tissue-based
# [3] = system: HT-1080; experiment: Anti-ferroptotic activity against Erastin-induced ferroptosis in human HT-1080 cells assessed as inhibition of lipid ROS production at 10 uM incubated for 24 hrs by C11-BODIPY 581/591 based flow cytometry relative to control; assay type: functional; conditions: HT-1080, 24 h, values are per cent of control
# [4] = Apparent permeability of compound at 10 uM incubated for 16 hrs by PAMPA based LC-MS/MS analysis; assay type: ADME
# [5] = system: HT-1080; experiment: Anti-ferroptotic activity against Erastin-induced ferroptosis in human HT-1080 cells assessed as inhibition of lipid peroxidation production at 10 uM incubated for 24 hrs by C11-BODIPY 581/591 based flow cytometry relative to control; assay type: functional; conditions: HT-1080, 24 h, values are per cent of control
# [6] = system: Mus musculus; experiment: Neuroprotective activity against transient middle cerebral artery occlusion induced ischemia stroke female SPF C57 mouse model assessed as reduction in cerebral infarct volume at 5 mg/kg,iv measured after 24 hrs by TTC staining based analysis relative to control; assay type: functional; set-up: scale not given: the % may be the effect or the level left
# [7] = system: N2a; experiment: Cytoprotective activity against oxygen-glucose deprivation/reoxygenation induced cell injury in mouse N2a cells assessed as upregulation of GPX4 expression at 1 uM incubated for 2 hrs under hypoxia condition and measured after 24 hrs by Western blotting analysis; assay type: functional, cell-based; conditions: time 26.0 hrs
# [8] = system: N2a; experiment: Cytoprotective activity against oxygen-glucose deprivation/reoxygenation induced cell injury in mouse N2a cells assessed as upregulation of SLC7A11 expression at 1 uM incubated for 2 hrs under hypoxia condition and measured after 24 hrs by Western blotting analysis; assay type: functional, cell-based; conditions: time 26.0 hrs
# [9] = Antioxidant activity assessed as DPPH radical scavenging activity at 0.4 uM incubated for 30 mins by Beckman Coulter analysis relative to control; assay type: functional
# [10] = system: N2a; experiment: Cytoprotective activity against oxygen-glucose deprivation/reoxygenation induced cell injury in mouse N2a cells assessed as increase in cell viability at 1 uM incubated for 2 hrs under hypoxia condition and measured after 24 hrs; assay type: functional, cell-based; conditions: time 26.0 hrs
# [11] = Cytotoxicity against human L02 cells incubated for 2 hrs by CCK-8 assay; assay type: toxicity, cell-based
# [12] = system: HT-1080; experiment: Anti-ferroptotic activity against Erastin-induced human HT-1080 cells assessed as inhibition of ferroptosis incubated for 24 hrs by Alamar blue dye based assay; assay type: functional, cell-based; conditions: HT-1080, 24 h
# [13] = system: MEF; experiment: Anti-ferroptotic activity against tamoxifen induced Gpx4 knockout mouse MEF cells assessed as inhibition of ferroptosis incubated for 72 hrs by AquaBluerTM assay; assay type: functional, cell-based
# [14] = Drug concentration in ICR mouse liver at 1 mg/kg,iv administration measured after 1 hrs by LC-MS/MS analysis; assay type: ADME, organism-based; conditions: in vivo
# [15] = AUC (0 to infinity) in ICR mouse at 1 mg/kg,iv administration measured upto 24 hrs by LC-MS/MS analysis; assay type: ADME, organism-based; conditions: in vivo
# [16] = Drug concentration in ICR mouse brain at 1 mg/kg,iv administration measured after 0.5 hrs by LC-MS/MS analysis; assay type: ADME, organism-based; conditions: in vivo
# [17] = Drug concentration in ICR mouse brain at 1 mg/kg,iv administration measured after 0.083 hrs by LC-MS/MS analysis; assay type: ADME, organism-based; conditions: in vivo
# [18] = AUC (0 to t) in ICR mouse at 1 mg/kg,iv administration measured upto 24 hrs by LC-MS/MS analysis; assay type: ADME, organism-based; conditions: in vivo
# [19] = system: Mus musculus; experiment: Neuroprotective activity against transient middle cerebral artery occlusion induced ischemia stroke female SPF C57 mouse model assessed as upregulation of SLC7A11 expression at 5 mg/kg,iv measured after 24 hrs by Western blotting analysis; assay type: functional, organism-based
# [20] = Drug concentration in ICR mouse liver at 1 mg/kg,iv administration measured after 0.5 hrs by LC-MS/MS analysis; assay type: ADME, organism-based; conditions: in vivo
# [21] = Drug concentration in ICR mouse kidney at 1 mg/kg,iv administration measured after 0.25 hrs by LC-MS/MS analysis; assay type: ADME, organism-based; conditions: in vivo
# [22] = Drug concentration in ICR mouse kidney at 1 mg/kg,iv administration measured after 1 hrs by LC-MS/MS analysis; assay type: ADME, organism-based; conditions: in vivo
# [23] = Drug concentration in ICR mouse kidney at 1 mg/kg,iv administration measured after 0.5 hrs by LC-MS/MS analysis; assay type: ADME, organism-based; conditions: in vivo
# [24] = Drug concentration in ICR mouse liver at 1 mg/kg,iv administration measured after 0.083 hrs by LC-MS/MS analysis; assay type: ADME, organism-based; conditions: in vivo
# [25] = Drug concentration in ICR mouse kidney at 1 mg/kg,iv administration measured after 0.083 hrs by LC-MS/MS analysis; assay type: ADME, organism-based; conditions: in vivo
# [26] = Drug concentration in ICR mouse liver at 1 mg/kg,iv administration measured after 0.25 hrs by LC-MS/MS analysis; assay type: ADME, organism-based; conditions: in vivo
# [27] = system: HT-1080; experiment: Anti-ferroptotic activity against Erastin-induced ferroptosis in human HT-1080 cells assessed as inhibition of lipid ROS production at 0.5 uM incubated for 24 hrs by C11-BODIPY 581/591 based flow cytometry relative to control; assay type: functional
# [28] = Drug concentration in ICR mouse lung at 1 mg/kg,iv administration measured after 0.083 hrs by LC-MS/MS analysis; assay type: ADME, organism-based; conditions: in vivo
# [29] = Drug concentration in ICR mouse lung at 1 mg/kg,iv administration measured after 0.25 hrs by LC-MS/MS analysis; assay type: ADME, organism-based; conditions: in vivo
# [30] = system: Mus musculus; experiment: Neuroprotective activity against transient middle cerebral artery occlusion induced ischemia stroke female SPF C57 mouse model assessed as reduction in cerebral edema at 5 mg/kg,iv measured after 24 hrs; assay type: functional, organism-based
# [31] = system: Mus musculus; experiment: Neuroprotective activity against transient middle cerebral artery occlusion induced ischemia stroke female SPF C57 mouse model assessed as upregulation of GPX expression at 5 mg/kg,iv measured after 24 hrs by Western blotting analysis; assay type: functional, organism-based
# [32] = Tmax in ICR mouse at 1 mg/kg,iv administration measured upto 24 hrs by LC-MS/MS analysis; assay type: ADME, organism-based; conditions: in vivo
# [33] = Drug concentration in ICR mouse brain at 1 mg/kg,iv administration measured after 0.25 hrs by LC-MS/MS analysis; assay type: ADME, organism-based; conditions: in vivo
# [34] = Cytotoxicity against human H6C7 cells incubated for 2 hrs by CCK-8 assay; assay type: toxicity, cell-based; conditions: h6c7, 2 h
# [35] = Drug concentration in ICR mouse lung at 1 mg/kg,iv administration measured after 0.5 hrs by LC-MS/MS analysis; assay type: ADME, organism-based; conditions: in vivo
# [36] = Cmax in ICR mouse at 1 mg/kg,iv administration measured upto 24 hrs by LC-MS/MS analysis; assay type: ADME, organism-based; conditions: in vivo
# [37] = Half life in ICR mouse at 1 mg/kg,iv administration measured upto 24 hrs by LC-MS/MS analysis; assay type: ADME, organism-based; conditions: in vivo
# [38] = system: HEK293; experiment: Cytotoxicity against human HEK293 cells incubated for 2 hrs by CCK-8 assay; assay type: toxicity, cell-based; conditions: hek293, 2 h
# [39] = system: Mus musculus; experiment: Neuroprotective activity against transient middle cerebral artery occlusion induced ischemia stroke female SPF C57 mouse model assessed as reduction in neurological deficit score at 5 mg/kg,iv measured after 24 hrs; assay type: functional
# [40] = Homo sapiens, HT-1080, 72 h, read-out: IC50
structure (smiles),measurement,setting,value
Cn1nnc(-c2ccc(NC3CCCCC3)cc2F)n1,IC50,[1]; [40],> 1000 nM
CCOC(=O)c1ccc(NC2CCCCC2)c(N)c1,IC50,[2],90 nM
same,IC50,[1]; [40],60 nM
same,"response, % of control at 10 µM",[3],2.29%
same,"Papp at 16 h, 10 µM",[4],6.76 ×10⁻⁶ cm/s
same,"response, % of control at 10 µM",[5],0.58%
same,Activity,[6],9.98%
same,Activity,[7],Active
same,Activity,[8],Active
same,inhibition,[9],inactive
Cn1nnc(-c2ccc(NC3CCCCC3)c(NCc3ccncc3)c2)n1,IC50,[1]; [40],> 1000 nM
Cn1nnc(-c2ccc(O)c(NC3CCCCC3)c2)n1,IC50,[1]; [40],> 1000 nM
COc1cc(NC2CCCCC2)c(N)cc1-c1nnn(C)n1,IC50,[1]; [40],801 nM
Cn1nnc(-c2ccc(NC3CCCCC3)c(N)c2)n1,IC50,[1]; [40],30 nM
Cn1nnc(-c2ccc(NC3CCCCC3)cc2)n1,IC50,[1]; [40],122 nM
same,"response, % of control at 10 µM",[5],5.96%
COc1cc(-c2nnn(C)n2)ccc1NC1CCCCC1,IC50,[1]; [40],> 1000 nM
O=C1c2c(O)cc(O)cc2O[C@H](c2ccc(O)c(O)c2)[C@H]1O [(+)-TAXIFOLIN],IC50,[1]; [40],> 10000 nM
CCCCCCCCNc1ccc(-c2nnn(C)n2)cc1N,IC50,[1]; [40],497 nM
Oc1cc(O)cc(/C=C/c2ccc(O)cc2O)c1 [OXYRESVERATROL],IC50,[1]; ht-1080,Not Active
Cn1nnc(-c2ccc(NC3CCCCC3)cc2N)n1,IC50,[1]; [40],> 1000 nM
Cn1nnc(-c2c(F)cc(NC3CCCCC3)cc2F)n1,IC50,[1]; [40],> 1000 nM
N#CCn1nnc(-c2ccc(NC3CCCCC3)cc2)n1,IC50,[1]; [40],8120 nM
CNc1ccc(-c2nnn(C)n2)cc1,IC50,[1]; [40],8220 nM
FC(F)(F)Cn1nnc(-c2ccc(NC3CCCCC3)cc2)n1,IC50,[1]; [40],> 10000 nM
COc1ccc(Nc2ccc(-c3nnn(C)n3)cc2NC2CCCCC2)cn1,IC50,[1]; [40],75 nM
Cn1nnc(-c2ccc(NC3CCCCC3)cc2Cl)n1,IC50,[1]; [40],> 1000 nM
Cn1nnc(-c2cc(N)c(NC3CCCCC3)cc2F)n1,IC50,[1]; [40],49 nM
same,Activity,[10],Active
same,IC50 at 2 h,[11],12300 nM
same,inhibition,[9],35.3%
Cn1nnc(-c2cnc(NC3CCCCC3)s2)n1,IC50,[1]; [40],> 1000 nM
CCOC(=O)c1ccc(NC2CCCCC2)c(NCc2ccccc2)c1,IC50,[12],6 nM
COc1ccc(Nc2ccc(-c3nnn(C)n3)cc2NC2CCCCC2)cc1,IC50,[1]; [40],81 nM
Cn1nnc(-c2cc(N)c(NC3CCCCC3)cc2Cl)n1,IC50,[1]; [40],17 nM
Cn1nnc(-c2ccc(NC3CCCCC3)cn2)n1,IC50,[1]; [40],> 1000 nM
Cc1c(-c2nnn(C)n2)ccc(NC2CCCCC2)c1N,IC50,[1]; [40],44 nM
Clc1cccc(CNC2=Nc3ccccc3NC23CCNCC3)c1,IC50,[13],22 nM
CN(c1ccc(-c2nnn(C)n2)cc1)C1CCCCC1,IC50,[1]; [40],> 10000 nM
CCn1nnc(-c2ccc(NC3CCCCC3)cc2)n1,IC50,[1]; [40],8510 nM
Cc1cc(NC2CCCCC2)ccc1-c1nnn(C)n1,IC50,[1]; [40],990 nM
Cn1nnc(-c2ccc(N)c(NC3CCCCC3)c2)n1,Ct,[14],0.02 mg/kg
same,AUC(0-inf),[15],95.6 ng·h/mL
same,Ct,[16],0.02 mg/kg
same,IC50,[1]; [40],22 nM
same,Ct,[17],0.09 mg/kg
same,AUC(0-t) at 24 h,[18],91.5 ng·h/mL
same,Activity,[19],Active
same,Ct,[20],0.09 mg/kg
same,Ct,[21],0.38 mg/kg
same,Ct,[22],0.03 mg/kg
same,Ct,[23],0.12 mg/kg
same,Ct,[24],0.32 mg/kg
same,"response, % of control at 10 µM",[3],0.57%
same,Ct,[25],0.41 mg/kg
same,Ct,[26],0.24 mg/kg
same,inhibition at 0.5 µM,[27],0.3%
same,"Papp at 16 h, 10 µM",[4],3.89 ×10⁻⁶ cm/s
same,Ct,[28],0.37 mg/kg
same,Ct,[29],0.19 mg/kg
same,Activity,[10],Active
same,Activity,[30],Active
same,Activity,[6],12.03%
same,Activity,[31],Active
same,Tmax,[32],4.8 min
same,Activity,[7],Active
same,Activity,[8],Active
same,Ct,[33],0.04 mg/kg
same,Activity,[34],Toxic
same,Ct,[35],0.1 mg/kg
same,inhibition,[9],41.3%
same,Cmax,[36],367 ng/mL
same,half-life,[37],6 min
same,Activity,[38],Toxic
same,Activity,[39],2
Cc1cc(NC2CCCCC2)c(N)cc1-c1nnn(C)n1,IC50,[1]; [40],71 nM
c1cc(-c2nn[nH]n2)ccc1NC1CCCCC1,IC50,[1]; [40],> 10000 nM
O=C1C[C@@H](c2ccc(O)c(O)c2)Oc2cc(O[C@@H]3O[C@H](CO)[C@@H](O)[C@H](O)[C@H]3O)cc(O)c21,IC50,[1]; [40],10000 nM
O=S1(=O)CCN(Cc2cc(NC3CCOCC3)c3[nH]c(-c4ccccc4)cc3c2)CC1,IC50,[1]; [40],6000 nM
Cn1nnc(-c2ccc(Nc3cccnc3)c(NC3CCCCC3)c2)n1,IC50,[1]; [40],186 nM
Cn1nnc(-c2ccc(NC3CCCCC3)c(NCc3ccccc3)c2)n1,IC50,[1]; [40],> 1000 nM
Cn1nnc(-c2cccc(NC3CCCCC3)c2N)n1,IC50,[1]; [40],> 1000 nM
Cn1nnc(-c2ccc(NC3CCCCC3)cc2C(F)(F)F)n1,IC50,[1]; [40],> 1000 nM
